The text below walks through data of US12594267B2, “Capsid inhibitors for the treatment of HIV” (Gilead Sciences, Inc., priority 2018, dated 2026).

The subject of assay [1] is HIV-1 clinical isolates. Nature of the assay: Antiviral activity against HIV-1 clinical isolates in PHA-stimulated human PBMCs. The format is cell-based. As to the method: (§1) The antiretroviral activity of the compound of Formula (Ia) was tested against a panel of 22 HIV-1 clinical isolates of HIV-1 and two HIV-2 isolates in freshly isolated, PHA-stimulated human peripheral blood mononuclear cells (PBMCs). The HIV-1 isolates included representative strains from subtypes A, B, C, D, E, F, G, N, O, AE, and AG. Following a 7-day infection, virus production was determined by measuring reverse transcriptase activity in cell-free culture supernatants.

Assay [2] deals with INSTI-resistant viruses. Description: Cytopathic antiviral assay in MT-2 cells, INSTI-resistant viruses. The format is cell-based, HIV-1. The following applies: Mutant/WT (HXB2D) EC50 ratio, mean ± s.d. of three experiments. As to the method:
(§2) The antiviral activity of the compound of Formula (a) was tested against a panel of known HIV-1 mutants resistant to HIV PIs (ATV and DRV), NRTIs (TFV and FTC), NNRTIs (RPV and EFV) or INSTIs (RAL, EVG and DTG) using a cytopathic antiviral assay in MT-2 cells. The compound of Formula (Ia) was fully active against all tested mutants resistant to PIs (Table 11), NRTIs (Table 12), NNRTIs (Table 13) or INSTIs (Table 14).
(In general: Cytopathic effects are the visible damage that an infection or toxin causes in cultured cells.)

In assay [3] the test system is WT HXB2D. Description: Cytopathic antiviral assay in MT-2 cells, wild type HXB2D. The note with it: Human immunodeficiency virus 1, MT2, read-out: WT HXB2D EC50, MT-2 cells, mean ± s.d. of three experiments in triplicate. The format is cell-based, HIV-1. As to the method: as §2
In assay [4] the test system is HIV-2 isolates. Nature of the assay: Antiviral activity against HIV-2 isolates in PHA-stimulated human PBMCs. The note with it: Human immunodeficiency virus 2, PBMC, 168 h, 7-day infection, RT activity readout, mean of triplicate. The format is cell-based. As to the method:
as §1

The test system of assay [5] is PI-resistant viruses. Nature of the assay: Cytopathic antiviral assay in MT-2 cells, PI-resistant viruses. The format is cell-based, HIV-1. The note with it: Mutant/WT (HXB2D) EC50 ratio, mean ± s.d. of three experiments. As to the method:
as §2

Assay [6] deals with NRTI-resistant viruses. The format is cell-based, HIV-1. The following applies: Mutant/WT (LAI) EC50 ratio, MT-2 cells, mean ± s.d. of three experiments. As to the method:
(§3) The antiviral activity of the compound of Formula (a) was tested against a panel of known HIV-1 mutants resistant to HIV PIs (ATV and DRV), NRTIs (TFV and FTC), NNRTIs (RPV and EFV) or INSTIs (RAL, EVG and DTG) using a cytopathic antiviral assay in MT-2 cells.

The test system of assay [7] is WT LAI. Nature of the assay: microbe, parasite or virus in culture. The format is cell-based, HIV-1. The note with it: Human immunodeficiency virus 1, MT2, read-out: WT LAI EC50. As to the method:
as §3

The mark [8] stands for this setting: INSTI-resistance panel (Table 14).

Like-named read-outs stand apart in the source and are kept apart here.

With `C[C@@H]1CCO[C@H]2Cn3cc(C(=O)NCc4ccc(F)cc4F)c(=O)c(O)c3C(=O)N12` [DTG, dolutegravir], the EC50 turned out to be 0.4 nM in assay [1] (Human immunodeficiency virus 1, BAL, PBMC, 168 h, read-out: EC50 in human PBMCs, HIV-1 subtype B isolate Ba-L, 7-day infection, RT activity readout, mean of triplicate); 1.02 nM in assay [1] (Human immunodeficiency virus 1, PBMC, 168 h, read-out: EC50 in human PBMCs, HIV-1 CRF01_AE isolate 90TH_CM235, 7-day infection, RT activity readout, mean of triplicate); 1.04 nM in assay [1] (Human immunodeficiency virus 1, PBMC, 168 h, read-out: EC50 in human PBMCs, HIV-1 CRF02_AG isolate 01CM0008BBY, 7-day infection, RT activity readout, mean of triplicate); 0.45 nM in assay [1] (Human immunodeficiency virus 1, PBMC, 168 h, read-out: EC50 in human PBMCs, HIV-1 CRF02_AG isolate 91DJ263, 7-day infection, RT activity readout, mean of triplicate); 0.54 nM in assay [1] (Human immunodeficiency virus 1, PBMC, 168 h, read-out: EC50 in human PBMCs, HIV-1 Group N isolate YBF30, 7-day infection, RT activity readout, mean of triplicate); 0.64 nM in assay [1] (Human immunodeficiency virus 1, PBMC, 168 h, read-out: EC50 in human PBMCs, HIV-1 Group O isolate BCF01, 7-day infection, RT activity readout, mean of triplicate). In addition, the EC50 in assay [1] (Human immunodeficiency virus 1, PBMC, 168 h, read-out: EC50 in human PBMCs, HIV-1 subtype A isolate 92UG031, 7-day infection, RT activity readout, mean of triplicate) was determined as 0.63 nM; in assay [1] (Human immunodeficiency virus 1, PBMC, 168 h, read-out: EC50 in human PBMCs, HIV-1 subtype A isolate 92UG037, 7-day infection, RT activity readout, mean of triplicate), 0.47 nM; in assay [1] (Human immunodeficiency virus 1, PBMC, 168 h, read-out: EC50 in human PBMCs, HIV-1 subtype B isolate 89BZ_167, 7-day infection, RT activity readout, mean of triplicate) it was 1.18 nM; in assay [1] (Human immunodeficiency virus 1, PBMC, 168 h, read-out: EC50 in human PBMCs, HIV-1 subtype B isolate 90US_873, 7-day infection, RT activity readout, mean of triplicate), 0.82 nM; in assay [1] (Human immunodeficiency virus 1, PBMC, 168 h, read-out: EC50 in human PBMCs, HIV-1 subtype B isolate 91US001, 7-day infection, RT activity readout, mean of triplicate), 0.53 nM; in assay [1] (Human immunodeficiency virus 1, PBMC, 168 h, read-out: EC50 in human PBMCs, HIV-1 subtype B isolate 91US004, 7-day infection, RT activity readout, mean of triplicate), 0.4 nM. In addition, the EC50 in assay [1] (Human immunodeficiency virus 1, PBMC, 168 h, read-out: EC50 in human PBMCs, HIV-1 subtype B isolate 96TH_NP1538, 7-day infection, RT activity readout, mean of triplicate) worked out at 0.4 nM; in assay [1] (Human immunodeficiency virus 1, PBMC, 168 h, read-out: EC50 in human PBMCs, HIV-1 subtype B isolate JR-CSF, 7-day infection, RT activity readout, mean of triplicate) it was 0.41 nM; in assay [1] (Human immunodeficiency virus 1, PBMC, 168 h, read-out: EC50 in human PBMCs, HIV-1 subtype C isolate 92BR025, 7-day infection, RT activity readout, mean of triplicate), 0.91 nM; in assay [1] (Human immunodeficiency virus 1, PBMC, 168 h, read-out: EC50 in human PBMCs, HIV-1 subtype C isolate 98US_MSC5016, 7-day infection, RT activity readout, mean of triplicate), 0.77 nM; in assay [1] (Human immunodeficiency virus 1, PBMC, 168 h, read-out: EC50 in human PBMCs, HIV-1 subtype D isolate 92UG001, 7-day infection, RT activity readout, mean of triplicate) it was 1.09 nM; in assay [1] (Human immunodeficiency virus 1, PBMC, 168 h, read-out: EC50 in human PBMCs, HIV-1 subtype D isolate 98UG_57128, 7-day infection, RT activity readout, mean of triplicate), 0.7 nM. In addition, the EC50 came to 0.81 nM in assay [1] (Human immunodeficiency virus 1, PBMC, 168 h, read-out: EC50 in human PBMCs, HIV-1 subtype E isolate CMU02, 7-day infection, RT activity readout, mean of triplicate); 0.96 nM in assay [1] (Human immunodeficiency virus 1, PBMC, 168 h, read-out: EC50 in human PBMCs, HIV-1 subtype E isolate CMU08, 7-day infection, RT activity readout, mean of triplicate); 0.38 nM in assay [1] (Human immunodeficiency virus 1, PBMC, 168 h, read-out: EC50 in human PBMCs, HIV-1 subtype F isolate 93BR020, 7-day infection, RT activity readout, mean of triplicate); 0.93 nM in assay [1] (Human immunodeficiency virus 1, PBMC, 168 h, read-out: EC50 in human PBMCs, HIV-1 subtype G isolate JV1083, 7-day infection, RT activity readout, mean of triplicate); 0.7 ± 0.26 nM in assay [1] (Human immunodeficiency virus 1, PBMC, read-out: HIV-1 EC50 Mean ± s.d., mean over the 22 HIV-1 clinical isolates, human PBMCs); 0.67 nM in assay [1] (Human immunodeficiency virus 1, PBMC, read-out: HIV-1 EC50 Median, median over the 22 HIV-1 clinical isolates, human PBMCs). Besides, the EC50 in assay [1] (Human immunodeficiency virus 1, PBMC, read-out: HIV-1 EC50 Range, range over the 22 HIV-1 clinical isolates, human PBMCs) was 0.38 to 1.18 nM; in assay [3] (setting [8]) it was 2.24 ± 0.46 nM; in assay [4] (HIV-2 isolate CBL-20), 0.36 nM; in assay [4] (HIV-2 isolate CDC310319), 1.81 nM. The “EC50 Fold-Change” value in assay [2] (E92Q/N155H) is listed as 3.0 ± 1.1; in assay [2] (E138K/Q148K), 7.3 ± 4.1; in assay [2] (G140S/Q148R), 6.9 ± 3.1; in assay [2] (N155H/Q148R) it was 1.5 ± 0.6; in assay [2] (R263K/M50I), 2.8 ± 2.1; in assay [2] (Y143R), 0.8 ± 0.3.
For `COc1cc2c(cc1Cc1cccc(Cl)c1F)c(=O)c(C(=O)O)cn2[C@H](CO)C(C)C` [EVG, elvitegravir], the “EC50 Fold-Change” value in assay [5] (G48V/V82A/L90M) was 0.8 ± 0.4; in assay [5] (G48V/V82S) it was 0.7 ± 0.3; in assay [5] (I50V) it was 1.7 ± 1.0; in assay [5] (I84V/L90M) it was 1.0 ± 0.7; in assay [2] (E92Q/N155H) it was more than 53.5; in assay [2] (E138K/Q148K), more than 53.5. In addition, the “EC50 Fold-Change” value is more than 53.5 in assay [2] (G140S/Q148R); 51.0 ± 2.5 in assay [2] (N155H/Q148R); 5.1 ± 3.7 in assay [2] (R263K/M50I); 2.1 ± 0.2 in assay [2] (Y143R); 0.6 ± 0.4 in assay [6] (6TAMs); 0.8 ± 0.2 in assay [6] (K65R). Moreover, the “EC50 Fold-Change” value in assay [6] (M184V) was 1.1 ± 0.7. Moreover, the EC50 in assay [3] (setting [8]) was found to be 1.87 ± 0.19 nM; in assay [3] (PI-resistance panel (Table 11)), 2.02 ± 0.88 nM; in assay [7], 2.64 ± 0.9 nM.
`Nc1nc(=O)n([C@@H]2CS[C@H](CO)O2)cc1F` [FTC, emtricitabine]: the results for the “EC50 Fold-Change” value in assay [6] (6TAMs), in assay [6] (K65R) and in assay [6] (M184V) were 4.1 ± 2.5, 12.8 ± 2.4 and more than 20.8, respectively. Besides, the EC50 in assay [7] was 2.41 ± 1.16 nM.

A word on the EC50: it is the concentration that produces a half-maximal response.
